Measured values: the NIST ThermoML archive (doi:10.1016/j.jct.2017.03.006)

Assay: molar heat capacity at constant pressure; xn = mol fraction of the nth substance listed
Conditions: Liquid, Flow calorimetry

Cc1ccc(C)c(C)c1 [1,2,4-trimethylbenzene] + CCC(C)O
molar heat capacity at constant pressure [J/K/mol]
Conditions | x2 = 0 | x2 = 0.1001 | x2 = 0.3 | x2 = 0.5298 | x2 = 0.6001 | x2 = 0.7001 | x2 = 0.7997 | x2 = 0.9001
293.15 K, 100 kPa | 216.2 | 219.6 | 221.6 | 223.7 | 216 | 213 | 206.9 | 200.5
293.15 K, 5000 kPa | 215 | 218.1 | 220.8 | 222.1 | 215.3 | 211.7 | 205.2 | 198.5
293.15 K, 10000 kPa | 213.3 | 217 | 219.6 | 220.3 | 213.9 | 210.4 | 203.7 | 196.8
293.15 K, 15000 kPa | 212.5 | 216.2 | 219 | 218.9 | 213.2 | 208.5 | 201.9 | 195.5
293.15 K, 20000 kPa | 210.8 | 215.2 | 218.3 | 217.6 | 211.7 | 206.9 | 200.7 | 194.6
293.15 K, 25000 kPa | 209.8 | 214.6 | 217.3 | 215.9 | 210.5 | 205.5 | 199.7 | 193.3
313.15 K, 100 kPa | 222.5 | 231.1 | 235.8 | 234.2 | 233.8 | 232.1 | 226.9 | 224.2
313.15 K, 5000 kPa | 221.2 | 230.3 | 233.7 | 232.8 | 232.6 | 230 | 224.8 | 221.1
313.15 K, 10000 kPa | 219.6 | 229.5 | 232.6 | 231.9 | 230.1 | 227.4 | 222.4 | 218.9
313.15 K, 15000 kPa | 218.5 | 228.8 | 231.1 | 230.9 | 229 | 225.3 | 220.6 | 217.3
313.15 K, 20000 kPa | 217.7 | 227.7 | 229.9 | 229.6 | 227.2 | 223.8 | 219.3 | 216
313.15 K, 25000 kPa | 217.1 | 226.4 | 229.5 | 228.2 | 225.6 | 222.7 | 218.1 | 214.1

Cc1ccc(C)c(C)c1 [1,2,4-trimethylbenzene] + CCCCO
molar heat capacity at constant pressure [J/K/mol]
Conditions | x2 = 0 | x2 = 0.1002 | x2 = 0.2327 | x2 = 0.3969 | x2 = 0.53 | x2 = 0.637 | x2 = 0.7176 | x2 = 0.7975 | x2 = 0.8594 | x2 = 0.9131
293.15 K, 100 kPa | 216.2 | 220 | 219.5 | 214 | 209.9 | 203.6 | 197 | 192.5 | 186.5 | 181.9
293.15 K, 5000 kPa | 215 | 219 | 219 | 213.4 | 208.8 | 203.3 | 196 | 191.8 | 186.3 | 181.4
293.15 K, 10000 kPa | 213.3 | 217.3 | 218.1 | 212.8 | 207.7 | 202.4 | 194.9 | 190.8 | 185.1 | 181.1
293.15 K, 15000 kPa | 212.5 | 216 | 217.4 | 212.1 | 206.3 | 202 | 194.2 | 190.2 | 184.1 | 180.7
293.15 K, 20000 kPa | 210.8 | 215.4 | 216.9 | 211.3 | 205.9 | 201.1 | 193.3 | 189.6 | 183.4 | 180.3
293.15 K, 25000 kPa | 209.8 | 214.5 | 216.3 | 210.3 | 204.7 | 199.9 | 192 | 188.6 | 182.4 | 180
313.15 K, 100 kPa | 222.5 | 230.5 | 231.1 | 230 | 224.9 | 220.4 | 214.4 | 210.3 | 204.5 | 200.7
313.15 K, 5000 kPa | 221.2 | 229.4 | 230.1 | 228.9 | 223 | 218.9 | 212.6 | 209.1 | 203.7 | 199.4
313.15 K, 10000 kPa | 219.6 | 228.5 | 229.8 | 227.4 | 222.3 | 217.6 | 211.5 | 208.6 | 203.3 | 198.8
313.15 K, 15000 kPa | 218.5 | 227.3 | 228.5 | 226.4 | 220.5 | 216.5 | 210.2 | 207.8 | 202.6 | 197.7
313.15 K, 20000 kPa | 217.7 | 225.8 | 227.3 | 225.4 | 219.2 | 215.4 | 209.3 | 206.4 | 202 | 196.6
313.15 K, 25000 kPa | 217.1 | 225.5 | 227 | 224.3 | 218.4 | 213.6 | 208.1 | 206.1 | 201.3 | 196

CCC(C)O (stereo not drawn) [butan-2-ol] + Cc1ccc(C)c(C)c1
molar heat capacity at constant pressure [J/K/mol], x1 = 1
Conditions | 100 kPa | 5000 kPa | 10000 kPa | 15000 kPa | 20000 kPa | 25000 kPa
293.15 K | 189.1 | 187.1 | 185.5 | 185.2 | 183.6 | 182.7
313.15 K | 214.9 | 213.1 | 211.1 | 209.4 | 207.2 | 204.9
